# Assay results reported in patent publication US4058601A, “Method for treating alcoholism” (Chugai Seiyaku Kabushiki Kaisha, priority 1974, dated 1977).
# Several values for one entry are separate records, joined by “and”; a condition that tells them apart may be missing. Identical values can stand only once. Entries after “also recorded” stand apart in the source; their conditions may differ.
# Assays:
# [1] = test system: rat (behavior after ethanol); assay: Behavior of rats in the blood alcohol experiment (Example 4); assay type: in vivo, Sprague Dawley strain female rats; details: UDP-2Na 100 mg/kg p.o. 30 min before ethanol 6 g/kg; ditto mark (") = normal walking
# Description: (§1) In this Example, Sprague Dawley strain female rats (weighing 150±20 g) divided into groups of 9 - 12 members each were used.
# (§2) After abstention from food overnight each rat was orally administered disodium uridine-5'-diphosphate (UDP-2Na) in the form of a physiological saline solution in a dose of 100 mg/kg. body weight as an effective ingredient and, 30 minutes after the administration, the rat was administered with ethanol in a dose of 6 g/kg body weight. Four hours and thirty minutes after the administration of ethanol, the rat was etherized, and blood was sampled from its heart to determine alcohol level in the blood by a alcoholic dehydrogenase method. For control, a physiological saline solution was used instead of the UDP-2Na solution.
# [2] = test system: rat (behaviour after ethanol); assay: Behaviour and righting reflex of rats, UDP-2Na given 30 min after ethanol (Example 3); assay type: in vivo, Sprague Dawley strain male rats; details: UDP-2Na 100 mg/kg p.o. 30 min after ethanol 6 g/kg
# Description: The Sprague Dawley strain male rats weighing 160±30 g which were fed rat food commercially available as CLEA CE-2 and prevented from eating food for 12 hours just before the experiment was started. Each rat was administered with ethanol as a 50% aqueous solution in a dose of 6 g/kg body weight. Thirty minutes after the administration, the rat was orally administered with a suspension of disodium uridine-5'-diphosphate (UDP-2Na) in corn oil in a dose of 100 mg/kg. body weight based on UDP-2Na. The behavior of the rat was observed over 24 hours after the last administration.
# [3] = test system: Neutral Lipid in Liver; assay: Inhibiting action for accumulation of neutral lipid in liver (ethanol-loaded rats); assay type: in vivo, Sprague Dawley strain male rats
# Description: Inhibiting Action for Accumulation of Neutral Lipid in Liver
# The Sprague Dawley strain male rats weighing 180±30 g which had been fed rat food commercially available as CLEA CE-2 and prevented from eating food for 16 hours just before the experiment was started were divided into groups of 10 rats each. Each rat was orally administered with disodium uridine-5'-diphosphate (UDP-2Na) as a suspension in corn oil in a dose of 100 mg/kg body weight. Thirty minutes after the administration, each rat was orally administered with ethanol as a 50% aqueous solution in a dose of 6 g/kg. body weight and, 24 hours after the administration, the liver was taken out and an amount of neutral lipid contained therein was determined by the Van Handel and Zilver-Smit method. For control, a glucose aqueous solution having a caloric content equivalent to the same amount of ethanol was used instead of ethanol.
# [4] = Measurement of alcohol level in blood (alcoholic dehydrogenase method); assay type: in vivo, Sprague Dawley strain female rats
# Description: Measurement of Alcohol Level in Blood
# as §1, §2
# [5] = test system: rat (behaviour after ethanol); assay: Behaviour and righting reflex of rats, UDP-2Na given 30 min before ethanol (Example 2); assay type: in vivo, Sprague Dawley strain male rats; details: UDP-2Na 100 mg/kg p.o. 30 min before ethanol 6 g/kg
# Description: The Sprague Dawley strain male rats weighing 260±30 g which had been fed rat food commercially available as CLEA CE-2 and prevented from eating food for 12 hours just before the experiment were divided into groups each of 10 - 13 members each. Each rat was orally administered disodium uridine-5'-diphosphate (UDP-2Na) in the form of a suspension in corn oil in an amount 100 mg/kg body weight. Thirty minutes after the administration, ethanol as a 50% aqueous solution was orally administered in a dose of 6 g/kg. body weight and then behavior of the rat was observed over 24 hours.
compound,measurement,setting,value
"O=c1ccn([C@@H]2O[C@H](COP(=O)([O-])OP(=O)([O-])O)[C@@H](O)[C@H]2O)c(=O)[nH]1.[Na+].[Na+] [UDP . 2Na, disodium uridine-5'-diphosphate]",Behavior (individual test animals No. 1-12),[1],normal walking; also recorded: lying flat; also recorded: deep sleep
same,Behaviour: Deep Sleep,[2]; 3 hrs after alcohol,1 heads
same,Behaviour: Lying Flat,[2]; 3 hrs after alcohol,6 heads
same,Behaviour: Normal Walking,[2]; 3 hrs after alcohol,4 heads
same,Righting Reflex +,[2]; 3 hrs after alcohol,10 heads
same,Righting Reflex -,[2]; 3 hrs after alcohol,1 heads
same,Behaviour: Deep Sleep,[2]; 6 hrs after alcohol,1 heads
same,Behaviour: Lying Flat,[2]; 6 hrs after alcohol,7 heads
same,Behaviour: Normal Walking,[2]; 6 hrs after alcohol,3 heads
same,Righting Reflex +,[2]; 6 hrs after alcohol,9 heads
same,Righting Reflex -,[2]; 6 hrs after alcohol,2 heads
same,Behaviour: Deep Sleep,[2]; 9 hrs after alcohol,1 heads
same,Behaviour: Lying Flat,[2]; 9 hrs after alcohol,6 heads
same,Behaviour: Normal Walking,[2]; 9 hrs after alcohol,4 heads
same,Righting Reflex +,[2]; 9 hrs after alcohol,10 heads
same,Righting Reflex -,[2]; 9 hrs after alcohol,1 heads
same,Behaviour: Deep Sleep,[2]; 12 hrs after alcohol,0 heads
same,Behaviour: Lying Flat,[2]; 12 hrs after alcohol,1 heads
same,Behaviour: Normal Walking,[2]; 12 hrs after alcohol,10 heads
same,Righting Reflex +,[2]; 12 hrs after alcohol,11 heads
same,Righting Reflex -,[2]; 12 hrs after alcohol,0 heads
same,Behaviour: Deep Sleep,[2]; 18 hrs after alcohol,0 heads
same,Behaviour: Lying Flat,[2]; 18 hrs after alcohol,0 heads
same,Behaviour: Normal Walking,[2]; 18 hrs after alcohol,11 heads
same,Righting Reflex +,[2]; 18 hrs after alcohol,11 heads
same,Righting Reflex -,[2]; 18 hrs after alcohol,0 heads
same,% inhibition (neutral lipid accumulation in liver),"[3]; UDP-2Na 100 mg/kg p.o. 30 min before ethanol 6 g/kg p.o., 24 h",95.7%
same,Neutral Lipid in Liver,"[3]; UDP-2Na 100 mg/kg p.o. in corn oil 30 min before ethanol 6 g/kg p.o., liver taken 24 h after",12.69 ± 7.85 mg/g
same,"Ethanol level in Blood, Average","[4]; UDP-2Na 100 mg/kg p.o. in saline 30 min before ethanol 6 g/kg, 4 h 30 min after ethanol, *Confidence Limits: 98%",1.51 ± 1.09 mg/mL
same,Ethanol level in Blood (individual test animals No. 1-12),"[4]; UDP-2Na 100 mg/kg p.o. in saline 30 min before ethanol 6 g/kg, blood 4 h 30 min after ethanol",2.11 mg/mL and 1.77 mg/mL and 0.57 mg/mL and 0.24 mg/mL and 0.75 mg/mL and 2.10 mg/mL and 1.08 mg/mL and 1.35 mg/mL and 1.72 mg/mL and 1.50 mg/mL and 2.16 mg/mL and 2.74 mg/mL
same,alcohol level in blood in comparison with the control,"[4]; UDP-2Na 100 mg/kg p.o., result in words",significantly lowered
same,Behaviour: Deep Sleep,[5]; 3 hrs after alcohol,1 heads
same,Behaviour: Lying Flat,[5]; 3 hrs after alcohol,5 heads
same,Behaviour: Normal Walking,[5]; 3 hrs after alcohol,7 heads
same,Righting Reflex +,[5]; 3 hrs after alcohol,12 heads
same,Righting Reflex -,[5]; 3 hrs after alcohol,1 heads
same,Behaviour: Deep Sleep,[5]; 6 hrs after alcohol,1 heads
same,Behaviour: Lying Flat,[5]; 6 hrs after alcohol,8 heads
same,Behaviour: Normal Walking,[5]; 6 hrs after alcohol,4 heads
same,Righting Reflex +,[5]; 6 hrs after alcohol,12 heads
same,Righting Reflex -,[5]; 6 hrs after alcohol,1 heads
same,Behaviour: Deep Sleep,[5]; 9 hrs after alcohol,0 heads
same,Behaviour: Lying Flat,[5]; 9 hrs after alcohol,7 heads
same,Behaviour: Normal Walking,[5]; 9 hrs after alcohol,6 heads
same,Righting Reflex +,[5]; 9 hrs after alcohol,13 heads
same,Righting Reflex -,[5]; 9 hrs after alcohol,0 heads
same,Behaviour: Deep Sleep,[5]; 12 hrs after alcohol,0 heads
same,Behaviour: Lying Flat,[5]; 12 hrs after alcohol,0 heads
same,Behaviour: Normal Walking,[5]; 12 hrs after alcohol,13 heads
same,Righting Reflex +,[5]; 12 hrs after alcohol,13 heads
same,Righting Reflex -,[5]; 12 hrs after alcohol,0 heads
same,Behaviour: Deep Sleep,[5]; 18 hrs after alcohol,0 heads
same,Behaviour: Lying Flat,[5]; 18 hrs after alcohol,0 heads
same,Behaviour: Normal Walking,[5]; 18 hrs after alcohol,13 heads
same,Righting Reflex +,[5]; 18 hrs after alcohol,13 heads
same,Righting Reflex -,[5]; 18 hrs after alcohol,0 heads
